Patent publication US20120053076A1, “METHODS FOR IDENTIFICATION” (Cambridge Enterprise Limited, priority 2009, published 2012)
Read-outs that look alike come from different tables or passages of the source. No end group written: not given here.

Tests used:
THP-1 cells = assay: MCP-1 induced THP-1 cell migration, Transwell assay; type: cell-based, human; details: for Max effect (maximum inhibition): Table 2, highest dose tested (1-10 μM); for Maximal inhibition of leukocyte migration: maximal / very high doses, Example 6
Protocol: Leukocyte migration was measured using the 96-well format micro Transwell® assay system from Neuroprobe (Gaithersburg, Md., USA). In principle, this assay consists of two chambers separated by a porous membrane. The chemoattractant is placed in the lower compartment and the cells are placed in the upper compartment.
The method was performed essentially as previously described (Reckless & Grainger (1999) Biochem. J. 340:803-11).
First, the cell suspension to be placed in the upper compartment was prepared. The THP-1 cells were pelleted by centrifugation (770×g; 4 mins) and washed with Geys Balanced Salt Solution with 1 mg/ml BSA (GBSS+BSA). This wash was then repeated, and the cells re-pelleted before being resuspended in a small volume of GBSS+BSA for counting, for example using a standard haemocytometer.
The volume of GBSS+BSA was then adjusted depending on the number of cells present so that the cells were at final density of 4.45×10^6 cells per ml of GBSS+BSA. This ensured that there were 100,000 THP-1 cells in each 25 μl of the solution to be placed in the upper chamber of the plate.
The suspension of THP-1 cells at 4.45×10^6 cells/ml was divided into three pots. […] To the second pot, the BSCI was added at the same concentration as in the first pot, but additionally the sstr2 antagonist was also added (for example BIM 23454 [Tulipano et al. (2002) 143:1218-24] or BIM 23627 were added at 66 nM final concentration from a stock solution in GBSS). To the third pot, GBSS+BSA plus vehicle as appropriate was added so that the volumes in three pots are equal, acting as a control.
Next, the chemoattractant solution to be placed in the lower compartment was prepared. MCP-1 was diluted in GBSS+BSA to give a final concentration of 25 ng/ml (after all additions). Note that, as recommended by Frow et al (Med. Res. Rev. 24:276-98) this is the concentration of MCP-1 which induces maximal migration in this system. This solution was divided into three pots, as for the cell suspension. To one pot, the BSCI was added to the same final concentration as was added to the cell suspension, in the second pot the BSCI and the sstr2 antagonist were both added at the same concentration as previously added to the cell suspension, while to the remaining pot GBSS+BSA plus vehicle as appropriate was added so that the volumes in the three pots were equal.
Once the chemoattractant solutions for the lower wells and cell solutions for the upper chambers were prepared, the migration chamber was assembled. 29 μl of the appropriate chemoattractant solution was placed into the lower well of the chamber. Assays were performed with at least triplicate determinations of each condition. Once all the lower chambers were filled, the porous membrane was applied to the chamber in accordance with the manufacturer's instructions. Finally, 25 μl of the appropriate cell solution was applied to each upper chamber. A plastic lid was placed over the entire apparatus to prevent evaporation.
The assembled chamber was incubated at 37° C., 5% CO2, for 2 hours.
At the end of the incubation, the liquid cell suspension was gently removed from the upper chamber, 20 μl of ice-cold 20 mM EDTA in PBS was added to the upper chamber, and the apparatus was incubated at 4° C. for 15 mins. This procedure caused any cells adhering to the underside of the membrane to fall into the lower chamber.
After this incubation the filter was carefully flushed with GBSS+BSA to wash off the EDTA, and then the filter was removed.
The number of cells migrated into the lower chamber under each condition can then be determined by a number of methods, including direct counting, labelling with fluorescent or radioactive markers or through the use of a vital dye. Typically, we utilised the vital dye MTT.

sstr2 = biological target: T1, sstr2 (Homo sapiens, UniProt P30874); assay: Equilibrium binding of [3H]-BN83250 to THP-1 cells
T1 construct: with 1×10^6 THP-1 cells in Gey's Balanced Salt Solution; endogenous in cells; host or cells: THP-1 cells (whole cells, 4° C.)
T1 sequence (P30874 whole entry): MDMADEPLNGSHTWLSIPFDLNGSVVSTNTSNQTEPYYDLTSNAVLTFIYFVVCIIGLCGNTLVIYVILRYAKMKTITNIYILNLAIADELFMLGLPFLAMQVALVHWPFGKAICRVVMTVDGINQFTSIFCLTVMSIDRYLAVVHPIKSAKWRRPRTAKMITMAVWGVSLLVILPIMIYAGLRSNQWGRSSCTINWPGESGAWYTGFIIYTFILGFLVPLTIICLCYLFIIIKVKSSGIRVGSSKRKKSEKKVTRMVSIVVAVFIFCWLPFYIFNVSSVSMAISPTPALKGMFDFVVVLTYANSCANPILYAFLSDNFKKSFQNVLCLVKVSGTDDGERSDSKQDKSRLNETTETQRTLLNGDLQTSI
Protocol: Methods: [^3H]-BN83250 was synthesesized from (S,E)-3-(2′,2′-dimethyldodec-4′-enoylamino)-caprolactam by catalytic hydrogenation using tritium gas over a palladium catalyst (CRB Ltd, Cleveland, UK), yielding the tritiated product at a concentration of […] in ethanol with a specific activity of 220 Ci/mmol. The (S,E)-3-(2′,2′-dimethyldodec-4′-enoylamino)-caprolactam was prepared as follows: (S,S)-3-amino-caprolactam hydro-pyrrolidine-5-carboxylate (10 mmol) and Na2CO3 (30 mmol) in water (30 ml) were added to a solution of 2,2-dimethyl-dodec-4-enoyl chloride (10 mmol) in dichloromethane (30 ml) at ambient temperature and the reaction was stirred for 12 hours. The organic layer was then separated and the aqueous phase was extracted with additional dichloromethane (2×25 ml). The combined organic layers were dried over Na2CO3 and reduced in vacuo. The residue was purified by silica column chromatography (1:1 EtOAc:hexanes to EtOAc) to give […]-3-(2′,2′-dimethyl-dodec-4′-enoyl)amino-caprolactam as a colourless oil (2.12 g, 63%). The radiolabelled compound was stored in the dark at 4° C. until required. Prior to use the specific activity was adjusted by addition of unlabelled BN83250.
For the analysis of binding, individual reactions were set up (in triplicate for each condition), with 1×10^6 THP-1 cells in Gey's Balanced Salt Solution, 10 nM [^3H]-BN83250 (at 50 Ci/mmol) and various concentrations of (S)-3(2′2′-dimethylpropionoylamino)-tetrahydropyridin-2-one (10 pM to 10 μM). Excess (100 μM) unlabelled BN83250 was used to determine the level of non-specific binding. After 2 hours at 4° C. (conditions previously shown to achieve equilibrium binding, and which prevent uptake of the radioligand that would result in an over-estimate of binding) excess label was washed away by centrifugation (3 washes with 5 ml of Gey's Balanced Salt Solution) and the bound radioactivity was determined by scintillation counting of the solubilised cell pellet.

platelets = assay: ADP-mediated platelet activation/aggregation; type: cell-based
Jurkat T cells = assay: SDF-1α induced migration of parental Jurkat T cells; type: cell-based, human
Protocol: Results: The level of the SDF-1α, receptor CXCR4 was similar on Jurkat-D3B and the parental Jurkat T cell line. Furthermore, the Jurkat-D3B cells responded to SDF-1α in a Transwell® chemotaxis assay (see Example 1 for the methodology employed) over a similar concentration range to the parental cell line.
Jurkat T cells and Jurkat-D3B cells were induced to migrate in response to 100 ng/ml SDF-1α (R&D systems; the concentration of SDF-1α which induced maximal cell migration in both lines). The BSCI BN83250 was then added at various concentrations between 0 nM and 1000 nM (each in triplicate) to both the upper and lower compartments (at the same concentration in each compartment, so as not to create a gradient of BSCI concentration). DMSO (1% final concentration) was used as the vehicle, and was present in all wells at equal concentration.

fetal rat pituicytes = assay: Rat pituicyte GH suppression assay; type: cell-based; details: Table 3
From the text: (§1) Two different assays for “classical” sstr2 functions were adopted: (1) cultured foetal rat pituitary cells secreted growth hormone which is inhibited by sstr2 agonists in a dose-dependent fashion and (2) selected glucose-sensitive sub-clones of the human Panc-1 cell line secrete insulin which is inhibited by sstr2 agonists in a dose-dependent fashion.
Methods: Cultures of fetal rat pituicytes were established exactly as previously described (Murray et al. (2004) J. Clin. Endocrinol. Metab. 89:3027-32) by enzymatic dispersion. After 48 hrs in low glucose DMEM plus 10% FCS, cells in 48 well plates (5×10^4 cells per well) were washed for 4 hrs in serum-free DMEM and then incubated with test agents at various concentrations for a further 24 hrs in serum-free DMEM. At the end of this period, the conditioned medium was harvested, any cell debris removed by centrifugation and assayed for GH using a commercially available ELISA (Linco; cat# EZRMGH-45K) in accordance with the manufacturer's instructions.
(§2) Results were reported as the mean±SD, expressed as the fold change from cells in the presence of vehicle only.

Panc-2H4 cells = assay: Human Panc-2H4 insulin suppression assay; type: cell-based
From the text: as §1
Glucose-sensitive sub-clones of the human Panc-1, a cell line derived from a pleiomorphic epithelioid carcinoma of the exocrine pancreas, were obtained essentially as described by Hamil et al. (2008) Biomed. Sci. Instrum. 44:441-6. Briefly, Panc-1 cells were subcultured in 24 well plates, and the medium was supplemented with an additional 5% glucose. […] The resulting sub-lines were then tested for glucose sensitivity by preparing wells of a 96-well plate (5×10^4 cells per well) which were then exposed to cultured medium containing a range of glucose concentrations (low glucose DMEM, DMEM, DMEM+1% glucose, DMEM+2.5% glucose and DMEM+5% glucose). After 24 hrs incubation, the conditioned medium was collected and assayed for insulin secretion by ELISA (Linco; cat# EZHI-14K) in accordance with the manufacturer's instructions.
Further 96 well plates were prepared using Panc-2H4 (5×10^4 cells per well) in DMEM. After 24 hrs, the medium was switched to DMEM+5% glucose containing various test agents at various concentrations (triplicate wells per condition). After a further 24 hrs, the conditioned medium was harvested and the concentration of insulin was determined by ELISA as described above.
as §2

5HT2a = details: rodents; cited from earlier work

Cortistatin: more recently described somatostatin analog (DRMPCRNFFWKTFSSCK; ends and bridges not checked; cysteine pairing not given here; UniProt O00230 89-105, looked up)
Max effect (maximum inhibition) (THP-1 cells): 40-60% | Maximal inhibition of leukocyte migration (THP-1 cells): ~50%

[3H]C(CCCCCCC)C([3H])CC(C)(C)C(=O)N[C@H]1CCCCNC1=O (stereo partly drawn) [[^3H]-BN83250, 4′,5′-^3[H] (S)-3-(2′,2′-dimethyldodecanoyl)amino-caprolactam]
Binding sites per cell (sstr2; THP-1 cells): 100,000 to 200,000 sites per cell | Kd (sstr2; THP-1 cells, 2 hours at 4° C., read-out: Affinity (Scatchard analysis)): ~0.08 µM

CC(C)C[C@H]1C(=O)N2CCC[C@H]2[C@]2(O)O[C@](NC(=O)[C@@H]3C[C@@H]4c5cccc6[nH]cc(c56)C[C@H]4N(C)C3)(C(C)C)C(=O)N12 [dihydroergocryptine]
Effect on ADP-mediated platelet activation/aggregation (platelets): significant potentiate ADP-mediated platelet aggregation

COC(=O)[C@@H]1[C@H]2C[C@H]3c4[nH]c5ccccc5c4CCN3C[C@@H]2CC[C@@H]1O [yohimbine]
Inhibition of SDF-1α induced migration of Jurkat T cells, in words (Jurkat T cells): neither agent inhibits | Effect on ADP-mediated platelet activation/aggregation (platelets): significant potentiate ADP-mediated platelet aggregation

C[C@@H](c1c[nH]c2ccccc12)[C@@H](NC(=O)N1CCC(n2c(=O)[nH]c3ccccc32)CC1)C(=O)NC[C@@H]1CCC[C@H](CN)C1 [L-779,976]
Human chemokine-induced THP-1 migration assay Max effect (THP-1 cells; Table 3): 65% | Chemokine-induced THP-1 cell migration assay (“BSCI” target) Max Effect (THP-1 cells; Table 4): 65% | Chemokine-induced THP-1 cell migration assay (“BSCI” target) Max Effect (THP-1 cells; Table 5): 65% | EC50 (fetal rat pituicytes; read-out: Rat pituicyte GH suppression assay ED50): 0.0029 µM | Rat pituicyte GH suppression assay Max effect (fetal rat pituicytes; suppression compared to vehicle): 55% | EC50 (Panc-2H4 cells; Table 3, read-out: Human Panc-2H4 insulin suppression assay ED50): 0.017 µM | Human Panc-2H4 insulin suppression assay Max effect (Panc-2H4 cells; Table 3, suppression compared to vehicle): 40% | Panc-2H4 insulin suppression assay (“classical” target) Max Effect (Panc-2H4 cells; Table 4): 40% | EC50 (Panc-2H4 cells; Table 4, 0.01 nM to 1,000 nM, DMSO 1%, read-out: Panc-2H4 insulin suppression assay (“classical” target) ED50): 0.017 µM | Panc-2H4 insulin suppression assay (“classical” target) Max Effect (Panc-2H4 cells; Table 5): 40% | EC50 (Panc-2H4 cells; Table 5, read-out: Panc-2H4 insulin suppression assay (“classical” target) ED50): 0.017 µM

Clc1cccc(Cl)c1N=C1NCCN1 [clonidine]
Effect on ADP-mediated platelet activation/aggregation (platelets): significant potentiate ADP-mediated platelet aggregation

CN(C)CCc1c[nH]c2cccc(O)c12 [psilocin]
Head twitching by classical 5HT2a agonists (5HT2a): induce this classical effect

COc1cc(CCN)cc(OC)c1OC [mescaline]
Head twitching by classical 5HT2a agonists (5HT2a): induce this classical effect

CC1(C(=O)N[C@H]2CCCCNC2=O)CCCCC1 [(S)-3-(1′-methylcyclohexyl-1′-carbonylamino)-caprolactam]
Competition with BN83250 binding to sstr2, in words (sstr2): compete with BN83250 binding to sstr2 to a similar extent

CCN(CC)C(=O)[C@@H]1C=C2c3cccc4[nH]cc(c34)C[C@H]2N(C)C1 [LSD]
Head twitching by classical 5HT2a agonists (5HT2a): induce this classical effect

Sst-28: alternatively processed sst28 natural ligand
Max effect (maximum inhibition) (THP-1 cells): 40-60% | Maximal inhibition of leukocyte migration (THP-1 cells): 40-60%

C[C@@H](N)Cc1c2ccoc2c(Br)c2ccoc12 [Bromo-DragonFLY]
Head twitching by classical 5HT2a agonists (5HT2a): induce this classical effect
